# Reference: patent US9650616B2, “Methods for increasing grain yield” (University of Florida Research Foundation, Inc., priority 2014, dated 2017)
# Numbering of substitutions follows the chain as printed. Several values for one entry are separate records, joined by “and”; a condition that tells them apart may be missing. Equal values may be shown once. Read-outs that look alike come from different tables or passages of the source.
# Legend:
# [1] = biological target: maize endosperm AGPase, evolutionary mutant SH2-E (SH2E); details: cited from earlier work; for Ki: presence of 3-PGA, NC, read-out: Ki (Pi)
# [2] = biological target: maize endosperm AGPase, wild type; details: cited from earlier work
# [3] = biological target: maize endosperm AGPase, evolutionary mutant SH2-E (SH2E); details: cited from earlier work; for Ki: read-out: Ki (Pi)
# [4] = biological target: T1, maize endosperm AGPase, large subunit variant GGR (Q96G, D161G, A443R; numbering of SEQ ID NO: 20) (Zea mays, UniProt P55241+Q84PF5, A443R/D161G/Q96G); assay: Pi inhibition in the absence of 3-PGA, GGR; format: biochemical
# T1 sequence (P55241 46-516 A443R/D161G/Q96G): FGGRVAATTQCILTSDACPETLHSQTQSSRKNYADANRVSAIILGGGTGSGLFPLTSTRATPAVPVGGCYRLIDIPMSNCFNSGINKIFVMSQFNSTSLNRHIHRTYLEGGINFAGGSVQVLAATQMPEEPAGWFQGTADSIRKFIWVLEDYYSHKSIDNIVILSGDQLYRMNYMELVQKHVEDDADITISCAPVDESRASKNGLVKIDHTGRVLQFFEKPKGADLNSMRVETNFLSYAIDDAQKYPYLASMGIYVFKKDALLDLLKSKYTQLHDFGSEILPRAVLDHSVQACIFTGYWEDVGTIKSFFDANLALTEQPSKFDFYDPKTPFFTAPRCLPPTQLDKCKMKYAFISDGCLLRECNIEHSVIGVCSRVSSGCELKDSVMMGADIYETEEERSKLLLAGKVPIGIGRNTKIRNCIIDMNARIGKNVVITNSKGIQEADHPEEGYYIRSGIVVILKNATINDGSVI
# T1 sequence (Q84PF5 1-474): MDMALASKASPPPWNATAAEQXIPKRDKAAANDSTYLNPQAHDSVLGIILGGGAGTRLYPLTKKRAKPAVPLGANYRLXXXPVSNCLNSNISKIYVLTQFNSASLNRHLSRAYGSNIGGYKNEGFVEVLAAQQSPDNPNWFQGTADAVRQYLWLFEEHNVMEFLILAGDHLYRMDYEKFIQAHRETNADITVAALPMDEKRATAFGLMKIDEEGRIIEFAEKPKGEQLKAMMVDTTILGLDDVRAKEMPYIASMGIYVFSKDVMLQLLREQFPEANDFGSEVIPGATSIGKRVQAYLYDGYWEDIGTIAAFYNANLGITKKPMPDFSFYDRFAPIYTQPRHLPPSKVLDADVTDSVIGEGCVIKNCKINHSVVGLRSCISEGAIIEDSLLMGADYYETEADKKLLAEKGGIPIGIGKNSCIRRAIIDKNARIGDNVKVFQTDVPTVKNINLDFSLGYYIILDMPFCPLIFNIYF
# Protocol: Next, the kinetics of the GGR mutant were further investigated by following Pi inhibition in the presence and absence of 3-PGA. Experiments were performed by keeping both substrates constant and non-saturating at several fixed concentrations of Pi.
# A similar examination of the Pi inhibition was then followed with GGR in the absence of 3-PGA.
# [5] = biological target: maize endosperm AGPase, wild type; details: cited from earlier work; remark: listed apart in the source
# [6] = biological target: T1, maize endosperm AGPase, large subunit variant GGR (Q96G, D161G, A443R; numbering of SEQ ID NO: 20); assay: Pi inhibition in the presence of 3-PGA, GGR; format: biochemical
# From the text: Inhibition by Pi was then followed in the presence of the activator 3-PGA.
# [7] = test system: maize endosperm AGPase, heat stable ISM mutants; assay: Apparent kinetic constants with 3-PGA, 37° C., ISM mutants collectively; format: biochemical, Zea mays
# Protocol: (§1) An endpoint assay was used to determine the rate of the AGPase reaction by coupling the formation of PPi to a decrease in NADH concentration (Boehlein et al., 2008). […] The Michaelis constants (Km) were obtained by varying one substrate in the presence of saturating concentrations of the second substrate. The activation constants were obtained by varying the activator at fixed levels of both substrates. All reactions were performed at 37° C. and mixes were prewarmed before starting the reaction with enzyme. Reactions were terminated by boiling the reaction mixes for 2 minutes followed by development with 200 μl of coupling reagent (25 mM imidazole pH 7.4, 4 mM MgCl2, 1 mM EDTA, 0.2 mM NADH, 0.725 U aldolase, 0.4 U triose phosphate isomerase, 0.6 U glycerophosphate dehydrogenase, 1 mM fructose 6-phosphate and 0.8 μg purified PPi-PFK per reaction). The absorbance at 340 nm was monitored after 30 min and the amount of PPi produced was determined from a standard curve using PPi in complete reaction mixtures lacking AGPase. Blank samples contained complete reaction mixtures without enzyme and the change in absorbance between the blank and the reaction was used to calculate the amount of PPi produced. Reactions were linear with time and enzyme concentration.
# The apparent Michaelis constant and maximum velocity of each reaction was calculated from a V vs. S plots using nonlinear regression analysis and the following equation, v=VmaxS/(Km+S), where v is the measured velocity, Vmax is the maximum velocity, S is the substrate concentration. The activation constant (Ka) was obtained using the following equation: V=Vmin+Vmax*(X)/(Ka+X), where Vmin is the velocity in the absence of activator and Vmax is the change in activity from Vmin to the total velocity. X is the activator concentration, Ka is the activation constant. All linear regression was carried out using the software program Prism (Graph Pad, San Diego Calif.).
# Each mutant, comprising 1, 2, 3 or 4 changes, was grown in a large scale culture, expressed and purified according to standard procedures (Boehlein et al., 2005). […] Thus, the effects of these mutations on the kinetic constants are minimal. Next, the activation constant, Ka, was determined for each of the mutant enzymes. Here a decrease in the Ka for each of the mutants of approximately 3-6 fold was observed. This property appears to stem from the D161G change, and includes all enzymes which carry this mutation (Table 8). To be certain the effect is the result of the D161G mutation, and not the result of other single mutant changes, Q96R and Q96G were purified and characterized.
# [8] = biological target: T2, maize endosperm AGPase variant T142F (Zea mays, UniProt P55241+Q84PF5, T142F); assay: Apparent kinetic constants with 3-PGA, 37° C., T142F; format: biochemical
# T2 construct: data of Boehlein et al., 2013
# T2 sequence (P55241 46-516 T142F): T1 sequence (P55241 46-516 A443R/D161G/Q96G) with G51Q, T97F, G116D, R398A
# T2 sequence (Q84PF5 1-474): T1 sequence (Q84PF5 1-474)
# Protocol: as §1, with “Reactions were terminated by boiling the reaction mixes for 2 minutes followed by development with 200 μl of coupling reagent (25 mM imidazole pH 7.4, 4 mM MgCl2, 1 mM EDTA, 0.2 mM NADH, 0.725 U aldolase, 0.4 U triose phosphate isomerase, 0.6 U glycerophosphate dehydrogenase, 1 mM fructose 6-phosphate and 0.8 μg purified PPi-PFK per reaction).” left out, “Reactions were linear with time and enzyme concentration.” left out
# (§2) The apparent Michaelis constant and maximum velocity of each reaction was calculated from a V vs. S plots using nonlinear regression analysis and the following equation, v=VmaxS/(Km+S), where v is the measured velocity, Vmax is the maximum velocity, S is the substrate concentration. […]
# (§3) Each mutant, comprising 1, 2, 3 or 4 changes, was grown in a large scale culture, expressed and purified according to standard procedures (Boehlein et al., 2005). […] Next, the activation constant, Ka, was determined for each of the mutant enzymes. […]
# [9] = test system: maize endosperm AGPase, wild type (Maize-wt); details: read-out: G-1-P Km, absence of 3-PGA; cited from earlier work
# [10] = biological target: T3, maize endosperm AGPase, evolutionary mutant SH2-E (Zea mays, UniProt P55241+Q84PF5); assay: Apparent kinetic constants with 3-PGA, 37° C., SH2-E; format: biochemical; details: read-out: G-1-P Km
# T3 construct: data of Boehlein et al., 2013
# T3 sequence (P55241 46-516, change not shown, one chain of several): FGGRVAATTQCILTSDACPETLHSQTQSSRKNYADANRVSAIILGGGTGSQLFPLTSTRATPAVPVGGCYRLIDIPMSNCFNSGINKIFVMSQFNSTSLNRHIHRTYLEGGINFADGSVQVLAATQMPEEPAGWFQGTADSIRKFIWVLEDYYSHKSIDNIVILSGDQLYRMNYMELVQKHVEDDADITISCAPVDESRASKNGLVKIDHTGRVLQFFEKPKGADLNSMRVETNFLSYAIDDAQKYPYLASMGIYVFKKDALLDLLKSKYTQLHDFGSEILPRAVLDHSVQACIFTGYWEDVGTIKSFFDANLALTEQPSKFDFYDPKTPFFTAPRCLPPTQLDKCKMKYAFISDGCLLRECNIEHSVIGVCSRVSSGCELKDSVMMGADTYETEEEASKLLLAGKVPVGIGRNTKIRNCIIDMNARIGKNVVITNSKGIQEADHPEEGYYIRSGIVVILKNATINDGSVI
# Protocol: as §1, with “Reactions were terminated by boiling the reaction mixes for 2 minutes followed by development with 200 μl of coupling reagent (25 mM imidazole pH 7.4, 4 mM MgCl2, 1 mM EDTA, 0.2 mM NADH, 0.725 U aldolase, 0.4 U triose phosphate isomerase, 0.6 U glycerophosphate dehydrogenase, 1 mM fructose 6-phosphate and 0.8 μg purified PPi-PFK per reaction).” left out, “Reactions were linear with time and enzyme concentration.” left out
# as §2, §3
# [11] = biological target: T2, maize endosperm AGPase variant T142F; details: read-out: G-1-P Km, absence of 3-PGA; cited from earlier work
# [12] = biological target: T3, maize endosperm AGPase, evolutionary mutant SH2-E; details: read-out: G-1-P Km, absence of 3-PGA; cited from earlier work
# [13] = Maize wt, presence of 3-PGA, varied substrate ATP
# [14] = Maize wt, presence of 3-PGA, varied substrate G-1-P
# [15] = absence of 3-PGA, varied substrate G-1-P
# [16] = Maize wt, absence of 3-PGA, varied substrate ATP
# [17] = Maize wt, absence of 3-PGA, varied substrate G-1-P
compound,measurement,setting,value
"O=P(O)(O)O [Pi, phosphate]",Ki,[1]; varied substrate ATP,7.8 mM
same,Ki,[1]; varied substrate G-1-P,6.62 mM
same,Ki,"[2]; Maize wt, presence of 3-PGA, varied substrate ATP, P-MT, read-out: Ki (Pi)",0.37 mM
same,α (Pi interaction factor),[2]; [13],4.61 +/− 0.70
same,β (partiality of Pi inhibition),[2]; [13],0.83 +/− 0.037
same,Ki,"[2]; Maize wt, presence of 3-PGA, varied substrate G-1-P, P-MT, read-out: Ki (Pi)",1 mM
same,α (Pi interaction factor),[2]; [14],0.90 +/− 0.012
same,β (partiality of Pi inhibition),[2]; [14],0.52 +/− 0.023
same,Ki,"[2]; wt AGPase, in the presence of 3-PGA, read-out: Ki for Pi",0.5 to 1 mM
same,Ki,"[3]; absence of 3-PGA, varied substrate ATP, NC",20.9 mM
same,Ki,[3]; [15],0.055 mM
same,α (Pi interaction factor),[3]; [15],0.85 +/− 0.17
same,β (partiality of Pi inhibition),[3]; [15],0.44 +/− 0.03
same,Ki for Pi relative to normal concentration of Pi in maize endosperm (~6.5 mM),[4],10-20 times
same,Ki,[4]; read-out: Ki for Pi with respect to both substrates,50 to 100 mM
same,Ki,"[4]; varied substrate G-1-P, read-out: Ki (Pi)",52.7 mM
same,Ki,"[5]; Maize wt, absence of 3-PGA, varied substrate ATP, P-MT, read-out: Ki (Pi)",3.4 mM
same,α (Pi interaction factor),[5]; [16],0.063 +/− 0.034
same,β (partiality of Pi inhibition),[5]; [16],0.52 +/− 0.17
same,Ki,"[5]; Maize wt, absence of 3-PGA, varied substrate G-1-P, P-MT, read-out: Ki (Pi)",5.1 mM
same,α (Pi interaction factor),[5]; [17],0.095 +/− 0.065
same,β (partiality of Pi inhibition),[5]; [17],0.92 +/− 0.31
same,Ki,"[5]; wt maize AGPase, absence of activator, read-out: Ki for Pi",3 to 5 mM
same,Ki,"[6]; in the presence of 3-PGA, read-out: Ki for Pi",10 to 20 mM
same,α (Pi interaction factor),"[6]; presence of 3-PGA, varied substrate ATP",2.5 and 2.5 +/− 0.66
same,Ki,"[6]; presence of 3-PGA, varied substrate ATP, L-MT, read-out: Ki (Pi)",10.7 mM
same,Ki,"[6]; presence of 3-PGA, varied substrate G-1-P, NC, read-out: Ki (Pi)",20.7 mM
O=C(O)[C@H](O)COP(=O)(O)O [3-PGA],"affinity for the activator, 3-PGA",[7]; heat stable mutant,increased affinity
same,decrease in the Ka for 3-PGA,[7]; mutants carrying D161G versus wt maize,3-6 fold
same,Ka for 3-PGA,[8],decreased Ka
"O=P(O)(O)O[C@H]1O[C@H](CO)[C@@H](O)[C@H](O)[C@H]1O [G-1-P, glucose-1-phosphate]",Km,[9],2800 µM
same,Km,[10],30 µM
same,Km,"[1]; read-out: Km (G-1-P), presence of 3-PGA, G-1-P varied, Pi inhibition, NC",63 µM
same,Km,"[2]; read-out: Km (G-1-P), Maize wt, presence of 3-PGA, G-1-P varied, Pi inhibition, P-MT",91 µM
same,largest variation in Km,"[7]; mutants versus wt maize, in the presence of 3-PGA",approximately two-fold
same,Km,"[3]; read-out: Km (G-1-P), absence of 3-PGA, G-1-P varied, Pi inhibition",200 µM
same,Km,[11],90 µM
same,Km,"[5]; read-out: Km (G-1-P), Maize wt, absence of 3-PGA, G-1-P varied, Pi inhibition, P-MT",22200 µM
same,Km,"[5]; wt maize AGPase, absence of activator, Pi inhibition assay, read-out: Km for both substrates",> 20000 µM
same,Km,[12],30 µM
